Where a SMILES comes first, the peptide text is derived from it. Where no end group is shown, it is not given here. The star is where a group is joined. 5FAM = O=C1OC2(c3ccc(O)cc3Oc3cc(O)ccc32)c2ccc(C(=O)*)cc21; Ahx = NCCCCCC(=O)O
Experiments:
[1] = system: primary human M2-resembling (MCSF + IL4 polarized) macrophages; assay: In vitro cytotoxicity (MTT), M2-resembling macrophages; assay type: cell-based; settings: 15-minute incubation at 33 and 100 μmol/L DOX, washed, 48 hours, N = 3 wells
Procedure: Human peripheral blood mononuclear cells (PBMC) were purified from human blood buffy coat using Ficoll Paque Plus (GE Healthcare, catalog no. 17-1440-02) reagent and CD14^+ microbeads (MACS Miltenyi Biotec, catalog no. 130-050-201) as described previously ([42]). A total of 1.2 × 10^5 cells in 50 μL of RPMI1640 medium were seeded on an FBS-coated 96-well plate. To obtain optimal macrophage attachment and M2 resembling, 50 μL of IL4 (50 ng/mL, BioLegend, catalog no. 574002) and MCSF (50 ng/mL, BioLegend, catalog no. 574802) mixture was added to the wells. The medium was replenished by substituting half of the medium with fresh medium containing IL4 and MCSF every other day for 6 days. To obtain M1-resembling macrophages, monocytes were incubated with M-CSF (50 ng/mL) for 6 days, replenishing every other day with fresh medium containing MCSF and on day 6, 50 μL of MCSF, lipopolysaccharide (LPS, 100 ng/mL, Sigma-Aldrich, catalog no. L4391) and IFNγ (20 ng/mL, BioLegend, catalog no. 570202) was added and incubated overnight. […] After incubation, wells were washed, fresh medium added, and cells incubated for 48 hours at 37°C. […] Absorbance was read at 580 nm using a plate reader (Tecan Sunrise) and the corresponding Magellan 7 program. […] After that, cells were washed 2× with 200 μL of RB and read using BD Accuri 6 plus (BD Biosciences). […]

[2] = system: orthotopic TNBC (4T1 cells); assay: OximUNO treatment of orthotopic TNBC; assay type: in vivo, Balb/c mice
Procedure: Two tumor models were used for treatment studies: the orthotopic TNBC model where 5 × 10^4 4T1 cells in 50 μL of PBS were injected subcutaneously into fourth mammary fat pad; and the experimental metastasis of TNBC model where 2 × 10^5 4T1-GFP cells in 100 μL of PBS were intravenously injected.
A total of 5 × 10^4 4T1 cells in 50 μL of PBS were subcutaneously injected into the fourth mammary fat pad of 8–12 weeks old female Balb/c mice. On day 7, mice were sorted into four groups by tumor volume measured using a digital caliper (Mitutoyo). Tumor volume was calculated on the basis of the formula (W^2 × L)/2, where W is the tumor's width and L is the tumor's length. […] Mouse bodyweight and tumor volumes were monitored every other day. […] CD206 was detected using rat anti-mouse CD206 (dilution 1/200), CD8 using rat anti-mouse CD8 (dilution 1/75 BioLegend, catalog no. 100701), FOXP3 using rat anti-mouse FOXP3 (dilution 1/75, BioLegend, catalog no. 126401) as primary antibodies, Alexa Fluor goat anti-rat 647 (dilution 1/300 for CD206 and 1/200 for CD8, FOXP3,) was used as a secondary antibody for all markers. […]
For H&E staining, 2-μm–thick sections were cut from paraffin-embedded blocks. […] Images were analyzed using the QuPath program (version 0.1.2; ref. [52]). […] Stained heart sections were also scanned using a slide scanner and analysed with the QuPath program. […]

[3] = cited from earlier work
Source text: On the basis of these ante ...

[4] = same mice strain, sex, age; cited from earlier work

COc1cccc2c1C(=O)c1c(O)c3c(c(O)c1C2=O)C[C@@](O)(C(=O)CO)C[C@@H]3O[C@H]1C[C@H](N)[C@H](O)[C@H](C)O1 [DOX, doxorubicin]
toxicity (MTT cell viability) [1]: only displayed toxicity in MCSF + IL4 polarized macrophages at 100 μmol/L
CD206 expression in primary tumor ([2]; IF, compared with PBS): upregulated CD206 expression
mouse bodyweight ([2]; i.p., 2 mg/kg of DOX every other day, nine injections): significant decrease in mouse bodyweight

C[C@H](NC(=O)CNC(=O)[C@@H]1CCCN1C(=O)[C@H](CO)NC(=O)[C@H](CS)NC(=O)CCCCCNC(=O)c1ccc2c(c1)C(=O)OC21c2ccc(O)cc2Oc2cc(O)ccc21)C(=O)N[C@@H](CCCCN)C(=O)O [FAM-mUNO] ({5FAM-Ahx}-CSPGAK-OH)
degradation of FAM coupled through an amide bond, in serum [3]: negligible degradation

CSPGAK-OH [mUNO]
half-life, intraperitoneal versus intravenous administration [4]: substantially longer half-life
